Data on 16 molecules can be found in patent EP3985010A1, “SPIROCYCLIC INHIBITORS OF HEPATITIS B VIRUS” (priority 2020, dated 2022).

pEC50: −log10 of the molar value.

This assay has as its system HBV. The experiment in a line: Anti-HBV activity in vitro: quantification of extracellular HBV DNA by direct qPCR in HepAD38 cells. The note with it: Hepatitis B virus, doxycycline-free medium, 96 hours at 37°C, 8-point dose-response curve, read-out: HBV inh EC50. It counts as cell-based. The source says:
HepAD38 cell line (Ladner et al., Antimicrob Agents Chemother, 1997, 41, 1715-20) was used for HBV inhibition assays. HepAD38 is a subclone, derived from hepatoblastoma cell line HepG2 (ATCC® Number: HB-8065™), that expresses HBV genome under the transcriptional control of a tetracycline-responsive promoter in a TET-OFF system: addition of doxycycline, an antibiotic belonging to the class of tetracycline, suppresses HBV replication, while its removal switches on the process allowing HBV viral particles release in the cell supernatant. HepAD38 cell line is maintained in DMEM/F12, supplemented with 10% of fetal bovine serum, 1% of glutamine, 1% of penicillin/streptomycin, 0.4 mg/ml G418 and 0,3 ug/ml tetracycline. For the HBV inhibition assay, doxycycline-free medium is used in order to allow virion production.
HBV inhibition activity in vitro was performed in 96 multiwell plates. During the initial (primary) screening, compounds were first tested in triplicates at concentrations of 0.02 µM, 0.1µM, 0.5µM and 1µM. For selected compounds, an 8-point dose-response curve was obtained using 1:2 serial dilutions (starting from 0.01µM, 0.1µM, 0.4µM or 5 µM, depending on the degree of inhibition observed during the primary screening). From the dose-response curves, half maximal effective concentration (EC50) could be calculated (see also below).
In more detail, compounds - typically dissolved in DMSO stock solutions - were diluted to 2x the final desired concentration in 100 µl of the above medium (without doxycycline) and plated in three replicates in the 96-well plates.
Simultaneously, HepAD38 cells - extensively pre-washed in doxycycline-free medium in order to induce HBV production - were suspended at 2^∗10^4 cells in 100 µl of doxycycline-free medium and added to each well of the plate, to yield a final assay volume of 200 µl DMSO - used for stock solutions and compounds dilutions - which was always present in the assays at a final concentration of 0.5%.
Plates were then incubated 96 hours at 37°C and then subjected to cell viability assays and extracellular HBV quantification, in order to evaluate both the cytotoxic potential and the antiviral activity of compounds. Cytotoxicity was assessed by a commercial fluorescence assay that measures the metabolic activity of cells, directly related to cell viability (Cell Titer Blue, Promega). Anti-HBV activity was evaluated by quantification of extracellular HBV DNA with direct qPCR. In particular, supernatant was collected and centrifuged for cell debris clarification, viral DNA was extracted from virions by addition of lysis buffer (1 mM 1,4-dithiothreitol, 0.2% sodium dodecyl sulphate) and incubated at 95°C for 10 min. Samples were then diluted 1:40 and real time PCR amplification was performed with SYBR green assay (Power SYBR™ Green PCR Master Mix-Thermo Fisher Scientific) and specific HBV primer (HBV-DF:5'-[…]-3' (SEQ ID No. 1), HBV-DR:5'-[…]-3' (SEQ ID No. 2)).
Antiviral activity data for each compound are reported as EC50 value (see Table 1 legend). Excel and Graphpad Prism programs are typically used for data elaboration and EC50 calculation.
What is called pEC50 is the EC50 on a negative log10 scale, so that one unit is a factor of ten. Take `C[C@@H](NC(=O)C(=O)N1CC[C@]2(COc3c(cn(C)c3C(=O)Nc3ccc(F)c(Cl)c3)S(=O)(=O)N2)C1)C(F)(F)F` [Example E4, (R)-N-(3-chloro-4-fluorophenyl)-7'-methyl-1-(2-oxo-2-(((R)-1,1,1-trifluoropropan-2-yl)amino)acetyl)-2'H,4'H,7'H-spiro[pyrrolidine-3,3'-pyrrolo[3,4-b][1,4,5]oxathiazepine]-6'-carboxamide 1',1'-dioxide]: the pEC50 was more than 6.30.

Turning to `Cn1cc2c(c1C(=O)Nc1ccc(F)c(Cl)c1)OCC1(CCN(C(=O)C(=O)NCC(F)(F)F)CC1)NS2(=O)=O` [Example E13, N-(3-chloro-4-fluorophenyl)-7'-methyl-1-(2-oxo-2-((2,2,2-trifluoroethyl)amino)acetyl)-2'H,4'H,7'H-spiro[piperidine-4,3'-pyrrolo[3,4-b][1,4,5]oxathiazepine]-6'-carboxamide 1',1'-dioxide], the negative logarithm of the EC50 (pEC50) is more than 6.30.

As to `Cn1cc2c(c1C(=O)Nc1ccc(F)c(Cl)c1)OC[C@]1(CCN(C(=O)C(=O)NC(C)(C)C(F)(F)F)C1)NS2(=O)=O` [Example E21, (R)-N-(3-chloro-4-fluorophenyl)-7'-methyl-1-(2-oxo-2-((1,1,1-trifluoro-2-methylpropan-2-yl)amino)acetyl)-2'H,4'H,7'H-spiro[pyrrolidine-3,3'-pyrrolo[3,4-b][1,4,5]oxathiazepine]-6'-carboxamide 1',1'-dioxide], the negative-log EC50 (pEC50) is more than 6.30.

Take `C[C@@H](NC(=O)C(=O)N1CCC2(COc3c(cn(C)c3C(=O)Nc3ccc(F)c(F)c3)S(=O)(=O)N2)C1)C(F)(F)F` (stereo partly drawn) [Example E1, N-(3,4-difluorophenyl)-7'-methyl-1-(2-oxo-2-(((R)-1,1,1-trifluoropropan-2-yl)amino)acetyl)-2'H,4'H,7'H-spiro[pyrrolidine-3,3'-pyrrolo[3,4-b][1,4,5]oxathiazepine]-6'-carboxamide 1',1'-dioxide]: the negative logarithm of the EC50 (pEC50) was more than 6.30.

With `Cn1cc2c(c1C(=O)Nc1ccc(F)c(C(F)F)c1)OC[C@@]1(CCN(C(=O)C(=O)NC(C)(C)C(F)(F)F)C1)NS2(=O)=O` [Example E28, (S)-N-(3-(difluoromethyl)-4-fluorophenyl)-7'-methyl-1-(2-oxo-2-((1,1,1-trifluoro-2-methylpropan-2-yl)amino)acetyl)-2'H,4'H,7'H-spiro[pyrrolidine-3,3'-pyrrolo[3,4-b][1,4,5]oxathiazepine]-6'-carboxamide 1',1'-dioxide], the pEC50 was more than 6.30.

Turning to `C[C@@H](NC(=O)C(=O)N1CC2(COc3c(cn(C)c3C(=O)Nc3ccc(F)c(C(F)F)c3)S(=O)(=O)N2)C1)C(F)(F)F` [Example E10, (R)-N-(3-(difluoromethyl)-4-fluorophenyl)-7'-methyl-1-(2-oxo-2-((1,1,1-trifluoropropan-2-yl)amino)acetyl)-2'H,4'H,7'H-spiro[azetidine-3,3'-pyrrolo[3,4-b][1,4,5]oxathiazepine]-6'-carboxamide 1',1'-dioxide], the negative-log EC50 (pEC50) was more than 6.30.

Take `Cn1cc2c(c1C(=O)Nc1ccc(F)c(Cl)c1)OC[C@]1(CCN(C(=O)C(=O)NCC(F)(F)F)C1)NS2(=O)=O` [Example E20, (R)-N-(3-chloro-4-fluorophenyl)-7'-methyl-1-(2-oxo-2-((2,2,2-trifluoroethyl)amino)acetyl)-2'H,4'H,7'H-spiro[pyrrolidine-3,3'-pyrrolo[3,4-b][1,4,5]oxathiazepine]-6'-carboxamide 1',1'-dioxide]: the pEC50 was more than 6.30.

With `C[C@@H](NC(=O)C(=O)N1CC[C@@]2(COc3c(cn(C)c3C(=O)Nc3ccc(F)c(Cl)c3)S(=O)(=O)N2)C1)C(F)(F)F` [Example E5, (S)-N-(3-chloro-4-fluorophenyl)-7'-methyl-1-(2-oxo-2-(((R)-1,1,1-trifluoropropan-2-yl)amino)acetyl)-2'H,4'H,7'H-spiro[pyrrolidine-3,3'-pyrrolo[3,4-b][1,4,5]oxathiazepine]-6'-carboxamide 1',1'-dioxide], the negative logarithm of the EC50 (pEC50) was more than 6.30.

For the molecule `C[C@H](NC(=O)C(=O)N1CC[C@]2(COc3c(cn(C)c3C(=O)Nc3ccc(F)c(Cl)c3)S(=O)(=O)N2)C1)C(F)(F)F` [Example E22, (R)-N-(3-chloro-4-fluorophenyl)-7'-methyl-1-(2-oxo-2-(((S)-1,1,1-trifluoropropan-2-yl)amino)acetyl)-2'H,4'H,7'H-spiro[pyrrolidine-3,3'-pyrrolo[3,4-b][1,4,5]oxathiazepine]-6'-carboxamide 1',1'-dioxide], the pEC50 was more than 6.30.

As for `C[C@@H](NC(=O)C(=O)N1CCC2(COc3c(c(Cl)n(C)c3C(=O)Nc3ccc(F)c(F)c3)S(=O)(=O)N2)C1)C(F)(F)F` (stereo partly drawn) [Example E3, 8'-chloro-N-(3,4-difluorophenyl)-7'-methyl-1-(2-oxo-2-(((R)-1,1,1-trifluoropropan-2-yl)amino)acetyl)-2'H,4'H,7'H-spiro[pyrrolidine-3,3'-pyrrolo[3,4-b][1,4,5]oxathiazepine]-6'-carboxamide 1',1'-dioxide], the negative-log EC50 (pEC50) is more than 6.30.

In the case of `C[C@H](NC(=O)C(=O)N1CC2(COc3c(cn(C)c3C(=O)Nc3ccc(F)c(Cl)c3)S(=O)(=O)N2)C1)C(F)(F)F` [Example E16, (S)-N-(3-chloro-4-fluorophenyl)-7'-methyl-1-(2-oxo-2-((1,1,1-trifluoropropan-2-yl)amino)acetyl)-2'H,4'H,7'H-spiro[azetidine-3,3'-pyrrolo[3,4-b][1,4,5]oxathiazepine]-6'-carboxamide 1',1'-dioxide], the pEC50 is more than 6.30.

`C[C@@H](NC(=O)C(=O)N1CCC2(CC1)COc1c(cn(C)c1C(=O)Nc1ccc(F)c(C(F)F)c1)S(=O)(=O)N2)C(F)(F)F` [Example E8, (R)-N-(3-(difluoromethyl)-4-fluorophenyl)-7'-methyl-1-(2-oxo-2-((1,1,1-trifluoropropan-2-yl)amino)acetyl)-2'H,4'H,7'H-spiro[piperidine-4,3'-pyrrolo[3,4-b][1,4,5]oxathiazepine]-6'-carboxamide 1',1'-dioxide]: the pEC50 is more than 6.30.

For `Cn1cc2c(c1C(=O)Nc1ccc(F)c(C(F)F)c1)OC[C@@]1(CCN(C(=O)C(=O)NCC(F)(F)F)C1)NS2(=O)=O` [Example E27, (S)-N-(3-(difluoromethyl)-4-fluorophenyl)-7'-methyl-1-(2-oxo-2-((2,2,2-trifluoroethyl)amino)acetyl)-2'H,4'H,7'H-spiro[pyrrolidine-3,3'-pyrrolo[3,4-b][1,4,5]oxathiazepine]-6'-carboxamide 1',1'-dioxide], the negative logarithm of the EC50 (pEC50) is more than 6.30.

On to `Cn1cc2c(c1C(=O)Nc1ccc(F)c(C(F)F)c1)OC[C@]1(CCN(C(=O)C(=O)NC(C)(C)C(F)(F)F)C1)NS2(=O)=O` [Example E24, (R)-N-(3-(difluoromethyl)-4-fluorophenyl)-7'-methyl-1-(2-oxo-2-((1,1,1-trifluoro-2-methylpropan-2-yl)amino)acetyl)-2'H,4'H,7'H-spiro[pyrrolidine-3,3'-pyrrolo[3,4-b][1,4,5]oxathiazepine]-6'-carboxamide 1',1'-dioxide], for which the pEC50 is more than 6.30.

`Cn1cc2c(c1C(=O)Nc1ccc(F)c(C(F)F)c1)OCC1(CCN(C(=O)C(=O)NC(C)(C)C(F)(F)F)CC1)NS2(=O)=O` [Example E15, N-(3-(difluoromethyl)-4-fluorophenyl)-7'-methyl-1-(2-oxo-2-((1,1,1-trifluoro-2-methylpropan-2-yl)amino)acetyl)-2'H,4'H,7'H-spiro[piperidine-4,3'-pyrrolo[3,4-b][1,4,5]oxathiazepine]-6'-carboxamide 1',1'-dioxide]: the pEC50 was more than 6.30.

On to `C[C@H](NC(=O)C(=O)N1CC[C@]2(COc3c(cn(C)c3C(=O)Nc3ccc(F)c(C(F)F)c3)S(=O)(=O)N2)C1)C(F)(F)F` [Example E23, (R)-N-(3-(difluoromethyl)-4-fluorophenyl)-7'-methyl-1-(2-oxo-2-(((S)-1,1,1-trifluoropropan-2-yl)amino)acetyl)-2'H,4'H,7'H-spiro[pyrrolidine-3,3'-pyrrolo[3,4-b][1,4,5]oxathiazepine]-6'-carboxamide 1',1'-dioxide], for which the pEC50 was more than 6.30.
